The text below walks through data of the supplement of paper PMC10307832.

What all share (test): relative viability (nuclei count vs DMSO), 5 days (fraction); higher = more cells survive
Compound in the assay “Everolimus + Pemetrexed”: CO[C@H]1C[C@@H]2CC[C@@H](C)[C@@](O)(O2)C(=O)C(=O)N2CCCC[C@H]2C(=O)O[C@H]([C@H](C)C[C@@H]2CC[C@@H](OCCO)[C@H](OC)C2)CC(=O)[C@H](C)/C=C(\C)[C@@H](O)[C@@H](OC)C(=O)[C@H](C)C[C@H](C)/C=C/C=C/C=C/1C [Everolimus] + Nc1nc2[nH]cc(CCc3ccc(C(=O)N[C@@H](CCC(=O)O)C(=O)O)cc3)c2c(=O)[nH]1 [Pemetrexed] (partner 0.2 µM)
Put shortly:
(§1)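 Lung cancer cell lines were seeded in 1536-well plates and dosed by pin tool the next day, with either a single drug or a fixed anchor-drug dose combined with five library-drug doses (not always all listed) spaced in √10 steps. Five days later, one step fixed the cells and stained their nuclei (final 0.05% Triton X-100, 1% formaldehyde, 1 ug/ml Hoechst), and nuclei were counted on 4× images. Relative viability is the nuclei count in treated wells divided by the count in vehicle wells, and each value is the median of duplicate plates.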

Compound in the assay “Everolimus + Alpelisib”: CO[C@H]1C[C@@H]2CC[C@@H](C)[C@@](O)(O2)C(=O)C(=O)N2CCCC[C@H]2C(=O)O[C@H]([C@H](C)C[C@@H]2CC[C@@H](OCCO)[C@H](OC)C2)CC(=O)[C@H](C)/C=C(\C)[C@@H](O)[C@@H](OC)C(=O)[C@H](C)C[C@H](C)/C=C/C=C/C=C/1C [Everolimus] + Cc1nc(NC(=O)N2CCC[C@H]2C(N)=O)sc1-c1ccnc(C(C)(C)C(F)(F)F)c1 [Alpelisib] (partner 2 µM)
Summed up: as §1

Compound in the assay “Everolimus + Olaparib”: CO[C@H]1C[C@@H]2CC[C@@H](C)[C@@](O)(O2)C(=O)C(=O)N2CCCC[C@H]2C(=O)O[C@H]([C@H](C)C[C@@H]2CC[C@@H](OCCO)[C@H](OC)C2)CC(=O)[C@H](C)/C=C(\C)[C@@H](O)[C@@H](OC)C(=O)[C@H](C)C[C@H](C)/C=C/C=C/C=C/1C [Everolimus] + O=C(c1cc(Cc2n[nH]c(=O)c3ccccc23)ccc1F)N1CCN(C(=O)C2CC2)CC1 [Olaparib] (partner 8 µM)
Summed up:
as §1

Compound in the assay “Everolimus + Bortezomib”: CO[C@H]1C[C@@H]2CC[C@@H](C)[C@@](O)(O2)C(=O)C(=O)N2CCCC[C@H]2C(=O)O[C@H]([C@H](C)C[C@@H]2CC[C@@H](OCCO)[C@H](OC)C2)CC(=O)[C@H](C)/C=C(\C)[C@@H](O)[C@@H](OC)C(=O)[C@H](C)C[C@H](C)/C=C/C=C/C=C/1C [Everolimus] + CC(C)C[C@H](NC(=O)[C@H](Cc1ccccc1)NC(=O)c1cnccn1)B(O)O [Bortezomib] (partner 0.002 µM)
Summed up:
as §1

In the case of NCI-H1395, the relative viability came to 0.595 in the assay with Everolimus + Pemetrexed (first compound 0.01 µM); 0.571 in the assay with Everolimus + Pemetrexed (first compound 0.03162 µM); 0.693 with Everolimus + Pemetrexed (first compound 0.1 µM); 0.693 in the assay with Everolimus + Pemetrexed (first compound 0.3162 µM); 0.7 with Everolimus + Pemetrexed (first compound 1 µM); 0.787 with Everolimus + Alpelisib (first compound 0.01 µM). The relative viability was 0.813 with Everolimus + Alpelisib (first compound 0.03162 µM); 0.722 with Everolimus + Alpelisib (first compound 0.1 µM); 0.759 in the assay with Everolimus + Alpelisib (first compound 0.3162 µM); 1.08 with Everolimus + Alpelisib (first compound 1 µM); 0.405 with Everolimus + Olaparib (first compound 0.01 µM); 0.423 in the assay with Everolimus + Olaparib (first compound 0.03162 µM). Moreover, the figures for the relative viability with Everolimus + Olaparib (first compound 0.1 µM), in the assay with Everolimus + Olaparib (first compound 0.3162 µM) and with Everolimus + Olaparib (first compound 1 µM) were 0.377, 0.401 and 0.379, respectively.

Regarding NCI-H1563, the relative viability in the assay with Everolimus + Bortezomib (first compound 0.01 µM) was 0.665; with Everolimus + Bortezomib (first compound 0.03162 µM), 0.724; in the assay with Everolimus + Bortezomib (first compound 0.1 µM), 0.762; in the assay with Everolimus + Bortezomib (first compound 0.3162 µM) it was 0.715; in the assay with Everolimus + Bortezomib (first compound 1 µM), 0.704; with Everolimus + Pemetrexed (first compound 0.01 µM) it was 0.715. The relative viability amounted to 0.572 in the assay with Everolimus + Pemetrexed (first compound 0.03162 µM); 0.618 with Everolimus + Pemetrexed (first compound 0.1 µM); 0.576 with Everolimus + Pemetrexed (first compound 0.3162 µM); 0.546 with Everolimus + Pemetrexed (first compound 1 µM); 0.715 in the assay with Everolimus + Alpelisib (first compound 0.01 µM); 0.717 with Everolimus + Alpelisib (first compound 0.03162 µM). The relative viability in the assay with Everolimus + Alpelisib (first compound 0.1 µM) stood at 0.662; in the assay with Everolimus + Alpelisib (first compound 0.3162 µM), 0.641; in the assay with Everolimus + Alpelisib (first compound 1 µM) it was 0.685.

As to NCI-H1648, the relative viability came to 0.544 in the assay with Everolimus + Pemetrexed (first compound 0.01 µM); 0.538 with Everolimus + Pemetrexed (first compound 0.03162 µM); 0.659 with Everolimus + Pemetrexed (first compound 0.1 µM); 0.629 in the assay with Everolimus + Pemetrexed (first compound 0.3162 µM); 0.742 with Everolimus + Pemetrexed (first compound 1 µM); 0.577 with Everolimus + Olaparib (first compound 0.01 µM). The relative viability in the assay with Everolimus + Olaparib (first compound 0.03162 µM) was determined as 0.473; in the assay with Everolimus + Olaparib (first compound 0.1 µM), 0.613; in the assay with Everolimus + Olaparib (first compound 0.3162 µM) it was 0.597; with Everolimus + Olaparib (first compound 1 µM) it was 0.482.

On to NCI-H1650, for which the relative viability in the assay with Everolimus + Bortezomib (first compound 0.01 µM) is 0.196; with Everolimus + Bortezomib (first compound 0.03162 µM), 0.186; with Everolimus + Bortezomib (first compound 0.1 µM), 0.179; in the assay with Everolimus + Bortezomib (first compound 0.3162 µM), 0.243; in the assay with Everolimus + Bortezomib (first compound 1 µM), 0.199; with Everolimus + Pemetrexed (first compound 0.01 µM) it was 0.451. The relative viability in the assay with Everolimus + Pemetrexed (first compound 0.03162 µM) was determined as 0.359; with Everolimus + Pemetrexed (first compound 0.1 µM) it was 0.325; with Everolimus + Pemetrexed (first compound 0.3162 µM), 0.442; in the assay with Everolimus + Pemetrexed (first compound 1 µM) it was 0.414; with Everolimus + Olaparib (first compound 0.01 µM), 0.893; with Everolimus + Olaparib (first compound 0.03162 µM), 0.934. In addition, the relative viability with Everolimus + Olaparib (first compound 0.1 µM) is 0.791; with Everolimus + Olaparib (first compound 0.3162 µM), 0.834; with Everolimus + Olaparib (first compound 1 µM) it was 0.849.

NCI-H1703: the relative viability came out at 0.183 with Everolimus + Bortezomib (first compound 0.01 µM); 0.178 in the assay with Everolimus + Bortezomib (first compound 0.03162 µM); 0.212 with Everolimus + Bortezomib (first compound 0.1 µM); 0.213 with Everolimus + Bortezomib (first compound 0.3162 µM); 0.186 with Everolimus + Bortezomib (first compound 1 µM); 0.213 in the assay with Everolimus + Alpelisib (first compound 0.01 µM). Also, the relative viability with Everolimus + Alpelisib (first compound 0.03162 µM) is 0.22; with Everolimus + Alpelisib (first compound 0.1 µM) it was 0.29; in the assay with Everolimus + Alpelisib (first compound 0.3162 µM) it was 0.239; with Everolimus + Alpelisib (first compound 1 µM), 0.338; with Everolimus + Olaparib (first compound 0.01 µM) it was 0.36; in the assay with Everolimus + Olaparib (first compound 0.03162 µM) it was 0.218. Besides, the relative viability with Everolimus + Olaparib (first compound 0.1 µM) worked out at 0.333; with Everolimus + Olaparib (first compound 0.3162 µM), 0.233; in the assay with Everolimus + Olaparib (first compound 1 µM) it was 0.337.

As to NCI-H1793, the relative viability in the assay with Everolimus + Pemetrexed (first compound 0.01 µM) was 0.373; with Everolimus + Pemetrexed (first compound 0.03162 µM) it was 0.332; with Everolimus + Pemetrexed (first compound 0.1 µM), 0.319; with Everolimus + Pemetrexed (first compound 0.3162 µM), 0.351; with Everolimus + Pemetrexed (first compound 1 µM), 0.251; in the assay with Everolimus + Alpelisib (first compound 0.01 µM), 0.314. The relative viability stood at 0.225 in the assay with Everolimus + Alpelisib (first compound 0.03162 µM); 0.298 with Everolimus + Alpelisib (first compound 0.1 µM); 0.23 with Everolimus + Alpelisib (first compound 0.3162 µM); 0.267 with Everolimus + Alpelisib (first compound 1 µM); 0.346 with Everolimus + Olaparib (first compound 0.01 µM); 0.345 in the assay with Everolimus + Olaparib (first compound 0.03162 µM). Also, the values for the relative viability with Everolimus + Olaparib (first compound 0.1 µM), with Everolimus + Olaparib (first compound 0.3162 µM) and in the assay with Everolimus + Olaparib (first compound 1 µM) were 0.319, 0.343 and 0.235, respectively.

Regarding NCI-H1944, the relative viability with Everolimus + Pemetrexed (first compound 0.01 µM) was determined as 0.497; in the assay with Everolimus + Pemetrexed (first compound 0.03162 µM), 0.545; in the assay with Everolimus + Pemetrexed (first compound 0.1 µM), 0.393; in the assay with Everolimus + Pemetrexed (first compound 0.3162 µM), 0.489; with Everolimus + Pemetrexed (first compound 1 µM), 0.404; in the assay with Everolimus + Alpelisib (first compound 0.01 µM) it was 0.592. Besides, the relative viability in the assay with Everolimus + Alpelisib (first compound 0.03162 µM) was found to be 0.565; with Everolimus + Alpelisib (first compound 0.1 µM), 0.593; with Everolimus + Alpelisib (first compound 0.3162 µM) it was 0.564; with Everolimus + Alpelisib (first compound 1 µM), 0.562; in the assay with Everolimus + Olaparib (first compound 0.01 µM) it was 0.389; with Everolimus + Olaparib (first compound 0.03162 µM), 0.329. Moreover, the relative viability in the assay with Everolimus + Olaparib (first compound 0.1 µM) was 0.325; in the assay with Everolimus + Olaparib (first compound 0.3162 µM) it was 0.35; with Everolimus + Olaparib (first compound 1 µM) it was 0.351.

NCI-H2170: the relative viability in the assay with Everolimus + Pemetrexed (first compound 0.01 µM) was determined as 0.259; in the assay with Everolimus + Pemetrexed (first compound 0.03162 µM), 0.26; in the assay with Everolimus + Pemetrexed (first compound 0.1 µM) it was 0.248; with Everolimus + Pemetrexed (first compound 0.3162 µM), 0.271; with Everolimus + Pemetrexed (first compound 1 µM) it was 0.257; with Everolimus + Alpelisib (first compound 0.01 µM), 0.365. For the same cell line, the relative viability in the assay with Everolimus + Alpelisib (first compound 0.03162 µM) is 0.367; with Everolimus + Alpelisib (first compound 0.1 µM), 0.333; with Everolimus + Alpelisib (first compound 0.3162 µM) it was 0.312; with Everolimus + Alpelisib (first compound 1 µM), 0.354; with Everolimus + Olaparib (first compound 0.01 µM) it was 0.361; in the assay with Everolimus + Olaparib (first compound 0.03162 µM), 0.285. Moreover, the relative viability with Everolimus + Olaparib (first compound 0.1 µM) was found to be 0.318; with Everolimus + Olaparib (first compound 0.3162 µM), 0.329; with Everolimus + Olaparib (first compound 1 µM), 0.316.

NCI-H2342: the relative viability worked out at 0.559 with Everolimus + Pemetrexed (first compound 0.01 µM); 0.478 with Everolimus + Pemetrexed (first compound 0.03162 µM); 0.446 in the assay with Everolimus + Pemetrexed (first compound 0.1 µM); 0.584 with Everolimus + Pemetrexed (first compound 0.3162 µM); 0.477 with Everolimus + Pemetrexed (first compound 1 µM); 0.385 with Everolimus + Olaparib (first compound 0.01 µM). The relative viability with Everolimus + Olaparib (first compound 0.03162 µM) is 0.363; in the assay with Everolimus + Olaparib (first compound 0.1 µM), 0.304; with Everolimus + Olaparib (first compound 0.3162 µM) it was 0.333; with Everolimus + Olaparib (first compound 1 µM), 0.36.

In the case of SK-MES-1, the relative viability was found to be 0.839 in the assay with Everolimus + Pemetrexed (first compound 0.01 µM); 0.826 with Everolimus + Pemetrexed (first compound 0.03162 µM); 0.825 with Everolimus + Pemetrexed (first compound 0.1 µM); 0.827 with Everolimus + Pemetrexed (first compound 0.3162 µM); 0.741 in the assay with Everolimus + Pemetrexed (first compound 1 µM); 0.486 with Everolimus + Alpelisib (first compound 0.01 µM). Further, the relative viability with Everolimus + Alpelisib (first compound 0.03162 µM) amounted to 0.461; in the assay with Everolimus + Alpelisib (first compound 0.3162 µM), 0.44; with Everolimus + Alpelisib (first compound 1 µM) it was 0.368; with Everolimus + Olaparib (first compound 0.01 µM), 0.539; with Everolimus + Olaparib (first compound 0.03162 µM) it was 0.468; in the assay with Everolimus + Olaparib (first compound 0.1 µM), 0.512. Also, the relative viability in the assay with Everolimus + Olaparib (first compound 0.3162 µM) turned out to be 0.537; with Everolimus + Olaparib (first compound 1 µM) it was 0.421.

In the case of SW 900, the relative viability was 0.391 with Everolimus + Pemetrexed (first compound 0.01 µM); 0.432 in the assay with Everolimus + Pemetrexed (first compound 0.03162 µM); 0.482 with Everolimus + Pemetrexed (first compound 0.1 µM); 0.431 in the assay with Everolimus + Pemetrexed (first compound 0.3162 µM); 0.421 in the assay with Everolimus + Pemetrexed (first compound 1 µM); 0.801 with Everolimus + Olaparib (first compound 0.01 µM). The relative viability was determined as 0.744 with Everolimus + Olaparib (first compound 0.03162 µM), 0.814 in the assay with Everolimus + Olaparib (first compound 0.1 µM), 0.656 with Everolimus + Olaparib (first compound 0.3162 µM) and 0.649 with Everolimus + Olaparib (first compound 1 µM).
